From patent US20230075856A1, “CYCLIC SULFAMIDE COMPOUNDS FOR TREATMENT OF HBV” (Assembly Biosciences, Inc., priority 2018, published 2023) come the findings set out here.

Bounds are passed on as bounds.

For one assay, the system named is HBV viral load production from HepAD38 cells. The assay is described as follows: Viral production from HepAD38 cells: viral load in supernatant by qPCR of the HBV core sequence. To be noted: 5 days incubation, qPCR of supernatant HBV DNA vs DMSO control, read-out: viral load lowering EC50 (Activity). Type of assay: cell-based. How it is done:
Assay Measuring Activity of Test Compounds on Viral Production from HepAD38 Cells
HepAD38 cells grown in a T-150 flask (Corning, cat #: 430825) with Growth Medium (DMEM/F12 […] (Hyclone, cat #: SH30023.02), 1× Pen/Strep (Invitrogen, cat #: 15140-122), 10% FBS (Tissue Culture Biologics, cat #: 101), […] G418 (Alfa Aesar, cat #: J62671), 1 μg/mL Tetracycline (Teknova, cat #: T3320)) were detached with 0.25% trypsin-EDTA (Invitrogen, cat #: 25200-056). Tetracycline-free treatment medium (15 mL DMEM/F12 (1:1) 1× Pen/step, with 2% FBS, Tet-system approved (Clontech, cat #: 631106) were then added to mix, transferred into a 50 ml conical tube (Falcon, cat #: 21008-918,) and spun at 1300 rpm for 5 min. Pelleted cells were then re-suspended/washed with 50 mL of 1×DPBS (Invitrogen, cat #: 14190-136) 2 times and 50 mL treatment medium twice. HepAD38 cells were then re-suspended with 10 mL of treatment medium, syringed and counted. Wells of 96-well clear bottom TC plate (Corning, cat #: 3904,) were seeded at 50,000 cells/well in 180 μL of treatment medium, and 20 μL of either 10% DMSO (Sigma, cat #: D4540) as controls or a 10× solution of test compounds in 10% DMSO in treatment media was added for a final compound concentration starting at 10 μM, and plates were incubated in 5% CO2 incubator at 37° C. for 5 days.
Subsequently viral load production was assayed by quantitative PCR (qPCR) of the HBV core sequence. PCR reaction mixture containing forward primers HBV-f 5′-CTGTGCCTTGGGTGGCTIT-3′ (IDT DNA), Reverse primers HBV-r 5′-[…]-3′ (IDT DNA), Fluorescent TaqMan™ Probes HBV-probe 5′-FAM/AGCTCCAAA/ZEN/[…]/3IABkFQ-3′ (IDT DNA), 10 μL/well of PerfeCTa® qPCR ToughMix® (Quanta Biosciences, Cat #: 95114-05K), and 6 μL/well of DEPC water (Alfa Aesar, cat #: J62087) was prepared. Four μL of supernatant was added to 16 μL of the reaction mixture in a qPCR plate (Applied Biosytems, Cat #: 4309849), sealed with a film (Applied Biosystems, Cat #: 4311971), centrifuged for a few seconds, and subsequently run on an Applied Biosystems VIIA7. The PCR mixture was incubated at 45° C. for 5 min, then 95° C. for 10 min, followed by 40 cycles of 10 seconds at 95° C. and 20 seconds at 60° C. Viral load was quantified against known HBV DNA standards by using ViiA™ 7 Software. Viral load in the supernatant from wells with treated cells were compared against viral load in supernatant from DMSO control wells (≥3 per plate). Cell viability assay was performed with CellTiter-Glo Luminescent Cell Viability Assay (Promega, cat #: G7573) with modification. Mixed appropriate amount of CellTiter-Glo (CTG) 1×DPBS in a 1:1 ratio, added 100 uL of the mixture to each well followed completely removal of all supernatant in each well without touching cell surface. Incubated the plate at room temperature for 10 min on an orbital shaker, and then read the plate with a plate reader (TECAN M1000 or Envision). EC50 or CC50 values were calculated through curve-fitting of the four-parameter nonlinear-logistic-regression model (GraphPad Prism or Dotmatics). CC50 values were all >10 μM.
(Real-time PCR tracks product formation cycle by cycle.)
On to `Cc1ncc(CNC(=O)C2CC(C(=O)Nc3ccc(F)c(Cl)c3)N(C)S(=O)(=O)N2)s1` (single isomer, unassigned; isomer-a) [Compound 495-ISOMER-A, N3-(3-chloro-4-fluroo-phenyl)-2-methyl-N5-[(2-methylthiazol-5-yl)methyl]-1,1-dioxo-1,2,6-thiadiazinane-3,5-dicarboxamide], for which the EC50 fell in the range of 100 to 10000 nM.
`Cc1cn(-c2ccc(F)cc2F)nc1CNC(=O)C1CC(C(=O)Nc2ccc(F)c(Cl)c2)N(C)S(=O)(=O)N1` (single isomer, unassigned) [1144-ISOMER-B, N3-(3-chloro-4-fluoro-phenyl)-N5-[[1-(2,4-difluorophenyl)-4-methyl-pyrazol-3-yl]methyl]-2-methyl-1,1-dioxo-1,2,6-thiadiazinane-3,5-dicarboxamide]: the EC50 lay in the range of 100 to 10000 nM.
With `CN1C(C(=O)Nc2ccc(F)c(Cl)c2)CC(C(=O)NC2CCN(c3ccnc(Cl)c3)CC2)NS1(=O)=O` (single isomer, unassigned) [1012-ISOMER-B, N3-(3-Chloro-4-fluoro-phenyl)-N5-[1-(2-chloro-4-pyridyl)-4-piperidyl]-2-methyl-1,1-dioxo-1,2,6-thiadiazinane-3,5-dicarboxamide], the half-maximal effective concentration (EC50) lay within 50 to 100 nM.
Regarding `CN1C(C(=O)Nc2ccc(F)c(Cl)c2)CC(C(=O)NCc2nn(-c3ccccc3)c3ccccc23)NS1(=O)=O` (single isomer, unassigned) [1072-ISOMER-B, N3-(3-chloro-4-fluoro-phenyl)-2-methyl-1,1-dioxo-N5-[(1-phenylindazol-3-yl)methyl]-1,2,6-thiadiazinane-3,5-dicarboxamide], the EC50 lay in the range of 100 to 10000 nM.
Take `CN1C(C(=O)Nc2ccc(F)c(Cl)c2)CC(C(=O)NCc2cnc(-c3ccccc3Cl)s2)NS1(=O)=O` (single isomer, unassigned) [Compound 912-ISOMER-B, N3-(3-chloro-4-fluoro-phenyl)-N5-[[2-(2-chlorophenyl)thiazol-5-yl]methyl]-2-methyl-1,1-dioxo-1,2,6-thiadiazinane-3,5-dicarboxamide]: the EC50 is below 50 nM.
With `CN1C(C(=O)Nc2ccc(F)c(Cl)c2)CC(C(=O)NCc2cnc(-c3ccccc3)s2)NS1(=O)=O` (single isomer, unassigned) [Compound 691-ISOMER-B, N3-(3-chloro-4-fluoro-phenyl)-2-methyl-1,1-dioxo-N5-[(2-phenylthiazol-5-yl)methyl]-1,2,6-thiadiazinane-3,5-dicarboxamide], the EC50 was below 50 nM.
With `Cc1c(CNC(=O)C2CC(C(=O)Nc3ccc(F)c(Cl)c3)N(C)S(=O)(=O)N2)noc1-c1ccccc1` (single isomer, unassigned) [1150-ISOMER-B, N3-(3-chloro-4-fluoro-phenyl)-2-methyl-N5-[(4-methyl-5-phenyl-isoxazol-3-yl)methyl]-1,1-dioxo-1,2,6-thiadiazinane-3,5-dicarboxamide], the concentration giving a half-maximal response (EC50) is 100 to 10000 nM.

Still in this assay, the particulars now being: Hepatitis B virus, HePAD38, 120 h, 5 days incubation, qPCR of supernatant HBV DNA vs DMSO control, read-out: viral load lowering EC50 (Activity).
For `CN1C(C(=O)Nc2ccc(F)c(Cl)c2)CC(C(=O)NC(c2ccccc2)c2ccccc2)NS1(=O)=O` (single isomer, unassigned) [1014-ISOMER-A, N5-benzhydryl-N3-(3-Chloro-4-fluoro-phenyl)-2-methyl-1,1-dioxo-1,2,6-thiadiazinane-3,5-dicarboxamide], the half-maximal effective concentration (EC50) is below 50 nM.
On to `CN1C(C(=O)Nc2ccc(F)c(Cl)c2)CC(C(=O)NCc2cnc(-c3ccc(C#N)cc3F)s2)NS1(=O)=O` (single isomer, unassigned) [Compound 920-ISOMER-A, N3-(3-chloro-4-fluoro-phenyl)-N5-[[2-(4-cyano-2-fluoro-phenyl)thiazol-5-yl]methyl]-2-methyl-1,1-dioxo-1,2,6-thiadiazinane-3,5-dicarboxamide], for which the EC50 fell in the range of 100 to 10000 nM.
`Cc1nc(-c2ccccc2F)sc1C(NC(=O)C1CC(C(=O)Nc2ccc(F)c(Cl)c2)N(C)S(=O)(=O)N1)c1ccccc1` (stereo not drawn) [Compound 1101]: the 50% effective concentration (EC50) fell in the range of 50 to 100 nM.
As to `CN1C(C(=O)Nc2ccc(F)c(Cl)c2)CC(C(=O)NCc2csc(Cl)n2)NS1(=O)=O` (stereo not drawn) [Compound 1006], the EC50 was in the range of 50 to 100 nM.
Same read-out and setting: the figure for `CN1C(C(=O)Nc2ccc(F)c(Cl)c2)CC(C(=O)N[C@H](c2ccccc2)c2cnc(Cl)s2)NS1(=O)=O` (single isomer, unassigned) [1066-ISOMER-A] is 100 to 10000 nM.
In the case of `CN1C(C(=O)Nc2ccc(F)c(Cl)c2)CC(C(=O)NCc2ccc(S(N)(=O)=O)s2)NS1(=O)=O` (stereo not drawn) [Compound 682], the EC50 is 100 to 10000 nM.
The same measure, in the same setting: the figure for `CN1C(C(=O)Nc2ccc(F)c(Cl)c2)CC(C(=O)NCc2cnc(-c3ccc(C#CCN4CCCCC4)cc3)s2)NS1(=O)=O` (stereo not drawn) [Compound 946] is 50 to 100 nM; for `COCCN1C(C(=O)Nc2ccc(F)c(Cl)c2)CC(C(=O)NC2CCN(C(=O)OC)CC2)NS1(=O)=O` (single isomer, unassigned) [Compound 896-ISOMER-A, methyl 4-[[5-[(3-chloro-4-fluoro-phenyl)carbamoyl]-6-(2-methoxyethyl)-1,1-dioxo-1,2,6-thiadiazinane-3-carbonyl]amino]piperidine-1-carboxylate] it is 50 to 100 nM.
Regarding `CN1C(C(=O)Nc2ccc(F)c(Cl)c2)CC(C(=O)NCc2cnc(-c3cccc(Cl)c3)s2)NS1(=O)=O` (single isomer, unassigned) [Compound 913-ISOMER-A, N3-(3-chloro-4-fluoro-phenyl)-N5-[[2-(3-chlorophenyl)thiazol-5-yl]methyl]-2-methyl-1,1-dioxo-1,2,6-thiadiazinane-3,5-dicarboxamide], the EC50 was 100 to 10000 nM.
Turning to `CN1C(C(=O)Nc2ccc(F)c(Cl)c2)CC(C(=O)NC2CCN(C(=O)C3CC3)CC2)NS1(=O)=O` (single isomer, unassigned) [Compound 854-ISOMER-A, N3-(3-chloro-4-fluoro-phenyl)-N5-[1-(cyclopropanecarbonyl)-4-piperidyl]-2-methyl-1,1-dioxo-1,2,6-thiadiazinane-3,5-dicarboxamide], the EC50 is below 50 nM.
Regarding `CN1C(C(=O)Nc2ccc(F)c(Cl)c2)CC(C(=O)N[C@@H](c2ccccc2)c2cnc(Cl)s2)NS1(=O)=O` (single isomer, unassigned) [1066-ISOMER-D], the EC50 was in the range of 100 to 10000 nM.
Turning to `CN1C(C(=O)Nc2ccc(F)c(Cl)c2)CC(C(=O)Nc2ccc(-c3ccccc3)cc2)NS1(=O)=O` (stereo not drawn) [Compound 711], the EC50 is 100 to 10000 nM.
Turning to `CCN1C(C(=O)Nc2ccc(F)c(Cl)c2)CC(C(=O)NC2CCN(C(=O)OC)CC2)NS1(=O)=O` (stereo not drawn) [Compound 890], the EC50 was below 50 nM.
Consider `CN1C(C(=O)Nc2ccc(F)c(Cl)c2)CC(C(=O)NC2CCOC2)NS1(=O)=O` (stereo not drawn) [Compound 706], for which the EC50 fell in the range of 100 to 10000 nM.
The same measure, in the same setting: the same measure for `CN1C(C(=O)Nc2ccc(F)c(Cl)c2)CC(C(=O)NCc2ccccc2-n2ccnc2)NS1(=O)=O` (single isomer, unassigned) [Compound 910-ISOMER-B, N3-(3-chloro-4-fluoro-phenyl)-N5-[(2-imidazol-1-ylphenyl)methyl]-2-methyl-1,1-dioxo-1,2,6-thiadiazinane-3,5-dicarboxamide]: 100 to 10000 nM; for `COC(=O)N1CCC(NC(=O)C2CC(C(=O)Nc3ccc(F)c(Cl)c3)N(C)S(=O)(=O)N2)CC1` (single isomer, unassigned) [Compound 477-ISOMER-A, methyl 4-[[5-[(3-chloro-4-fluoro-phenyl)carbamoyl]-6-methyl-1,1-dioxo-1,2,6-thiadiazinane-3-carbonyl]amino]piperidine-1-carboxylate]: below 50 nM.
As to `CN1C(C(=O)Nc2ccc(F)c(Cl)c2)CC(C(=O)NCc2cnc(N)s2)NS1(=O)=O` (single isomer, unassigned) [1132-ISOMER-A, N5-[(2-aminothiazol-5-yl)methyl]-N3-(3-chloro-4-fluoro-phenyl)-2-methyl-1,1-dioxo-1,2,6-thiadiazinane-3,5-dicarboxamide], the EC50 was in the range of 50 to 100 nM.

A word on the EC50: it is the concentration needed to bring the measured effect to its halfway point.
